In assay [1] the target is T1, human MutSbeta (Homo sapiens, UniProt P20585+P43246).
T1 construct: Msh2(1-934), Gene ID NP_000242.1; Msh3(1-1137), Gene ID J04810.1
The assay can be described thus: P33 SPA 1.1. In kind it is biochemical. As to conditions: Table 5A; enzyme first added to compounds, then ATP. The procedure: (§1) P33 SPA: Enzyme human MutSbeta (Msh2(1-934), Gene ID NP_000242.1, Msh3(1-1137), Gene ID J04810.1) and 22 bp biotin-labeled DNA containing a GT-mismatch (purchased from Curia Global, TOP 5′-[…]-3′; BOT 3′-AGTAGCTAGGC - - - CGAAGTCTACC-5′-Biotin) were pre-incubated at equimolar concentration for 15 min at room temperature (“RT”) in assay buffer (25 mM HEPES pH=7.5, 150 mM KCl, 2 mM MgCl2, 2 mM GSH, 0.01% Tween-20). ATP (10 μL, 2× final concentration of γ-[^33P]-ATP (final 0.1 nM; Hartmann Analytic, FF-301) and cold ATP (final 2 μM)) was added to compounds (400 nL spotted as concentration response in 100% DMSO into wells of an OptiPlate) and pre-incubated for 30 min at RT. Then, enzyme with DNA was added (10 μL, 2× final concentration of 7 nM) and incubated for 60 min at 37° C. in a total volume of 20 μL per well. Decay of [^33P] with a half-life of 25.4 days was corrected by increasing the concentration of the labelled nucleotide with the appropriate factor; all steps with radioactive ATP were conducted behind appropriate shielding. Then, 20 μL of a 1:2 mix of ammonium molybdate (20 mg/mL Ammonium molybdate in 2.4 M HCl) and SPA beads (ProteinA SPA beads from Perkin Elmer Cat #RPNQ0019 at 7.5 mg/mL+1% azide) was added per well and incubated at RT for 2 min. Then, 40 μL of 7 M CsCl and 0.1 M citrate was added per well and incubated for 20 h at RT before measuring on the MicroBeta (top read mode, 1 min per well). For full plate processing, all reagents were transferred with a pipettor (Selma, CyBio) apart from the final reagent (CsCl+citrate) which was added with a dispenser (MultiFlo, BioTek). Data analysis during assay development was done with Prism GraphPad.
P33 SPA 11: For the SPA 1.1 assay, the addition of reagents was reversed, i.e. enzyme was first added to the compounds and pre-incubated followed by ATP addition; thus, the assay was aligned with ADP Glo 1.1 reagent addition order. The assay was repeated under similar conditions, and the results are shown below in Table 5B. It is contemplated the solubility of the compounds and/or varying test occasions may account for variability of assay results.

In assay [2] the target is T1, human MutSbeta. The assay can be described thus: ADP Glo assay 1.1. As to conditions: SPA buffer, no Ovalbumin; enzyme added to compounds before ATP; read-out: ADP Gol 1.1 assay IC50. In kind it is biochemical. The procedure: (§2) ADP Glo assay 2.1: Enzyme human MutSbeta (Msh2(1-934), Gene ID NP_000242.1, Msh3(1-1137), Gene ID J04810.1) with 22 bp biotin-labeled DNA containing a GT-mismatch (purchased from Curia Global, TOP 5′-[…]-3′; BOT 3′-AGTAGCTAGGC - - - CGAAGTCTACC-5′-Biotin) was pre-incubated in assay buffer (25 mM HEPES pH=7.5, 150 mM KCl, 5 mM MgCl2, 5 mM GSH, 0.1% Pluronic F-127, 0.2% Ovalbumin) to allow formation of the enzyme-DNA complex. Plates with spotted compounds in serial dilutions in DMSO (80 nL) were filled with ATP (2 μL, 10 μM final concentration) followed by an incubation of 30 min at RT. Then, enzyme was added (2 μL, 7 nM final concentration) and the reaction was allowed to proceed for 60 min at 37° C. After the ATPase reaction, the commercially available “ADP-Glo Reagent” was added (incubate 40 min at RT) to deplete remaining ATP via the activity of […]. Subsequently, the commercially available “Kinase Detection Reagent” converted ADP to ATP via the activity of PEP and Pyruvate kinase. The ATP was then converted into light by Ultra-Glo Luciferase. The obtained luminescence was proportional to the ADP concentration generated during the initial ATPase reaction. The luminescence signal was measured with an Envision reader, raw data were analyzed towards controls (full reaction=0% inhibition; no reaction in absence of enzyme=100% inhibition) and IC50 curves were analyzed with the inhouse software Aplus.
ADP Glo assay 1.1: The ADP Glo 2.1 assay was adapted to enable assessment of a more direct interaction of the compound with the enzyme: (1) the SPA buffer was applied (25 mM HEPES pH=7.5, 150 mM KCl, 2 mM MgCl2, 2 mM GSH, 0.01% Tween-20) which contained no decoy Ovalbumin protein. (2) The order of reagent addition was changed, and enzyme was now added directly to the spotted compounds before addition of ATP.

Assay [3] addresses T1, human MutSbeta. The assay can be described thus: P33 SPA. As to conditions: ATP added to compounds first, then enzyme with DNA; 2 μM ATP, 7 nM enzyme, 60 min 37° C. The assay is classed as biochemical. The protocol: as §1
Assay [4] has as its target T1, human MutSbeta. The assay can be described thus: ADP Glo assay 2.1. In kind it is biochemical. As to conditions: 10 μM ATP, 7 nM enzyme; buffer with 5 mM GSH, 0.2% Ovalbumin. The procedure:
as §2
In general terms: ADP-Glo first removes unused ATP, then detects ADP through luciferase.

Another assay addresses T2, human MutSα (Homo sapiens, UniProt P43246+P52701).
T2 construct: Msh2(1-934), Gene ID NP_000242.1; Msh6(1-1360), Gene ID NP_001393725.1
The assay can be described thus: ADP Glo assay with MutSα (2.1). The assay is classed as biochemical. Particulars: 15 nM MutSα/DNA, 30 μM ATP. The procedure: as §2
ADP Glo assay with MutSα (2.1): The ADP Glo assay version 2.1 with the enzyme human MutSα (Msh2(1-934), Gene ID NP_000242.1, Msh6(1-1360), Gene ID NP_001393725.1) was based on the same principle and protocol steps as the MutSβ assay. A 22 bp biotin-labeled DNA containing a GT-mismatch (purchased from Curia Global, TOP 5′-[…]-3′; BOT 3′-AGTAGCTAGGC - - - CGAAGTCTACC-5′-Biotin) was used for binding to MutSα. For this assay, concentrations of enzyme and ATP were optimized to 15 nM MutSα/DNA and 30 μM ATP.

A short description of assay [5]: P33 SPA counter assay (absence of enzyme). Particulars: interference with detection system. The procedure: P33 SPA counter assay: This assay was used in the absence of enzyme to determine whether the test compound interferes with the detection system. Otherwise, the same protocol and assay buffer as in the main SPA assay were applied (25 mM HEPES pH=7.5, 150 mM KCl, 2 mM MgCl2, 2 mM GSH, 0.01% Tween-20) and instead of enzyme addition, assay buffer was added. Hydrolysis of substrate (γ-[^33P]-ATP, 0.1 nM; Hartmann Analytic, FF-301; and cold ATP, 10 μM) to a similar level as under enzymatic conditions was achieved by incubation at 50° C. for 4 days. Decay of [^33P] with a half-life of 25.4 days was corrected by increasing the concentration of the labelled nucleotide with the appropriate factor; all steps with radioactive ATP were conducted behind appropriate shielding. After addition of pre-treated ATP substrate (10 μL) to the compounds and addition of buffer (10 μL, instead of enzyme), 20 μL of a 1:2 mix of ammonium molybdate (20 mg/mL Ammonium molybdate in 2.4M HCl) and SPA beads (ProteinA SPA beads from Perkin Elmer Cat #RPNQ0019 at 7.5 mg/mL+1% azide) was added per well and incubated at RT for 2 min. Then, 40 μL of 7 M CsCl and 0.1 M citrate was added per well and incubated for 1 h at room temperature before measuring on the MicroBeta (top read mode, 1 min per well). For full plate processing, all reagents were transferred with a pipettor (Selma, CyBio) apart from the final reagent (CsCl+citrate) which was added with a dispenser (MultiFlo, BioTek). Data analysis during assay development was done with Prism GraphPad, and IC50 fitting for whole compound plates was done with the in-house software Aplus.

A word on the IC50: it is the point on the concentration scale where inhibition reaches its midpoint.

T2 sequence (P43246 whole entry): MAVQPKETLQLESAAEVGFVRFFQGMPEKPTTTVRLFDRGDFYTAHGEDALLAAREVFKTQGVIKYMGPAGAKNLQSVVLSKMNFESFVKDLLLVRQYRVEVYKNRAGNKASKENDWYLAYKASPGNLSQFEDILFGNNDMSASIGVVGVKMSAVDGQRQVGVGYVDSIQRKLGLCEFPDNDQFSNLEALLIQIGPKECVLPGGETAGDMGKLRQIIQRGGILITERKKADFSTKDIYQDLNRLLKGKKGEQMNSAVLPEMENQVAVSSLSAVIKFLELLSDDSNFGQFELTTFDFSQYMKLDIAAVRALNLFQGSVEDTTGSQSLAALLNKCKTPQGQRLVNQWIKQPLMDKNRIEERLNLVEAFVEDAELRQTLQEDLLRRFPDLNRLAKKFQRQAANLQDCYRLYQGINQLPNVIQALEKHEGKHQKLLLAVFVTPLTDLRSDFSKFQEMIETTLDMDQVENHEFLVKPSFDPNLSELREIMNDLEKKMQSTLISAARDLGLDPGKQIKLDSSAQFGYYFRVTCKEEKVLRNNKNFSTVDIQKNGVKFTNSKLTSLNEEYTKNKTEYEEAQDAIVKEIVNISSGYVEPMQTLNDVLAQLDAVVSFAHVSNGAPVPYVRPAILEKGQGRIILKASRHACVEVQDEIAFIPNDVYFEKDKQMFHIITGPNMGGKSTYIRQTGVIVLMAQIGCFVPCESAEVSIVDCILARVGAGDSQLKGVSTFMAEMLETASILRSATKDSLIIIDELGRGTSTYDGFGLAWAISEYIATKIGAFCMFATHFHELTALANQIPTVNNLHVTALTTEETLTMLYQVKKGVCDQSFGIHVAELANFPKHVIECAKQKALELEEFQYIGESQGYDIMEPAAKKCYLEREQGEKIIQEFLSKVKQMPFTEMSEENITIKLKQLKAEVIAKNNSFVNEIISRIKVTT
T2 sequence (P52701 whole entry): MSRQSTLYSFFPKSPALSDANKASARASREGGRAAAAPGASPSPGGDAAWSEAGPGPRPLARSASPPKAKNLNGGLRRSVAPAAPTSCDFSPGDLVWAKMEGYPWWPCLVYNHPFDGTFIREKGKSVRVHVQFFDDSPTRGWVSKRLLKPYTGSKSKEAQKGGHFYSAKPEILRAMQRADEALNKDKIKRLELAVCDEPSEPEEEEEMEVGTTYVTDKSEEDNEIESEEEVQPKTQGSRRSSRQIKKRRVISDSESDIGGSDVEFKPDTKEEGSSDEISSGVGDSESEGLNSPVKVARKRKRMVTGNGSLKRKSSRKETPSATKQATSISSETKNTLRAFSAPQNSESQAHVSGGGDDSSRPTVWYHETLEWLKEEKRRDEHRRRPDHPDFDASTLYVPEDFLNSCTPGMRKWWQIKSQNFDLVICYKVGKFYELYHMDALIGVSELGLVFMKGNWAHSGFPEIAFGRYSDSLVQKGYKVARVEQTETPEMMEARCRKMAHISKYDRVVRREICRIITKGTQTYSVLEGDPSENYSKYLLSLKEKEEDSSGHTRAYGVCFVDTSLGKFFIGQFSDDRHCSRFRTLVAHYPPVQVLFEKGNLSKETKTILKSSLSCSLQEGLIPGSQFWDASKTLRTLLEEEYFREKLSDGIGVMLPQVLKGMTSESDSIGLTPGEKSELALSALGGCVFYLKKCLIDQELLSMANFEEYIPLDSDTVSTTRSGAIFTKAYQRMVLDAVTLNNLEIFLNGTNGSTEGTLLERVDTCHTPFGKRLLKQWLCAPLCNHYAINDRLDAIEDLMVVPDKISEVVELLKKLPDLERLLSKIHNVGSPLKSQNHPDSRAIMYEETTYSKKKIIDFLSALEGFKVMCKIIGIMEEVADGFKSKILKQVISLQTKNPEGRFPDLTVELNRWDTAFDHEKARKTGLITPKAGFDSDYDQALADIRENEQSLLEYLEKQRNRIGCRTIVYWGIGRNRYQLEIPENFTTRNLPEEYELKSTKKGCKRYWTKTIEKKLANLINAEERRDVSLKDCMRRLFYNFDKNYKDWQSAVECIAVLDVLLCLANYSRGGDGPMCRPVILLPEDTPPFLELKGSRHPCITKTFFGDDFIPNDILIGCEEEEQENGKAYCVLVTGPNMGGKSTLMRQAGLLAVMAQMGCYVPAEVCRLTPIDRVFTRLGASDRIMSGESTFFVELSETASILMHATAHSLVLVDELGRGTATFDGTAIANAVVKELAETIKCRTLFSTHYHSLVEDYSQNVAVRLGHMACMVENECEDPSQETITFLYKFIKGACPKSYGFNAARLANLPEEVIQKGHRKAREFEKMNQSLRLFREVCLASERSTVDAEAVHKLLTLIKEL
T1 sequence (P43246 whole entry): as the sequence (P43246 whole entry) above
T1 sequence (P20585 whole entry): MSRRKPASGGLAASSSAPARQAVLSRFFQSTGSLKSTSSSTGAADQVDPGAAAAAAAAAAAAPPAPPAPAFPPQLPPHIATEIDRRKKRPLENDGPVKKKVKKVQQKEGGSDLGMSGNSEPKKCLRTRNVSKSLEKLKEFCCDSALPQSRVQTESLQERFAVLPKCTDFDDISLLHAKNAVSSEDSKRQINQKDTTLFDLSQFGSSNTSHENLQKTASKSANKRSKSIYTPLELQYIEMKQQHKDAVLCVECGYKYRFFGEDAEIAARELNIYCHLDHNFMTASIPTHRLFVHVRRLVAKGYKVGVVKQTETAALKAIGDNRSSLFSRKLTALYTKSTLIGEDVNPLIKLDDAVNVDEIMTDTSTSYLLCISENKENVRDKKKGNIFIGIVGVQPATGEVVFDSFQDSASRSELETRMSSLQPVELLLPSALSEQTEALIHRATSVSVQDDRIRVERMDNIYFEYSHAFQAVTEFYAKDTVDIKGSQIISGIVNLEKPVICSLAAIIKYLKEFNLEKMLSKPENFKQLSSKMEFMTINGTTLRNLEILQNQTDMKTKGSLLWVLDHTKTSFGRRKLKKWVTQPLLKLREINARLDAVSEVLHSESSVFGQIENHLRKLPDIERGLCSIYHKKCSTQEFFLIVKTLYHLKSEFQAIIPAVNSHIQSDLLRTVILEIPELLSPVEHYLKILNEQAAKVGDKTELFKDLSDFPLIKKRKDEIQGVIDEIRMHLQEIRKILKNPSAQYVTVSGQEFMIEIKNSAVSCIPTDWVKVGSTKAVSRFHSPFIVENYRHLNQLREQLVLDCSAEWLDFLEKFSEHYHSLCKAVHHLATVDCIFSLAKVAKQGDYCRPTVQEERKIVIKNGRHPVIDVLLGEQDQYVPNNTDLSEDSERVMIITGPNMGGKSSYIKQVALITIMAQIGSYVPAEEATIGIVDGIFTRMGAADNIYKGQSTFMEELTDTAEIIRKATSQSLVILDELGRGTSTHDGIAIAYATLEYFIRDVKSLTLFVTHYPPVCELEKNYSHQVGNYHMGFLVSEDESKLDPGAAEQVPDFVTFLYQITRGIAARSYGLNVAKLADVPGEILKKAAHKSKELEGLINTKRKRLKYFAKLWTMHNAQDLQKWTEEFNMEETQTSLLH

For `CCN1CCN(c2nc(Nc3ccc(F)c(C)c3)c3nccnc3n2)CC1` [Compound 3, 2-(4-ethylpiperazin-1-yl)-N-(4-fluoro-3-methyl-phenyl)pteridin-4-amine], the IC50 is 24.5 µM against human MutSbeta [1]; 42.5 µM on human MutSbeta [2]; 20.8 µM at human MutSbeta [3]; 32.6 µM against human MutSbeta [4]; 42.3 µM against human MutSα.

For `CN1CCN(c2nc(NCc3ccccc3)c3nccnc3n2)CC1` [Compound 5, N-benzyl-2-(4-methylpiperazin-1-yl)pteridin-4-amine], the IC50 against human MutSbeta [1] was 44.8 µM; at human MutSbeta [2], 63.4 µM; against human MutSbeta [3], 31 µM; at human MutSbeta [4], 148 µM; in assay [5], greater than 200 µM; on human MutSα it was greater than 200 µM.

For `Cc1cccc(Nc2nc(N3CCN(C)CC3)nc3nccnc23)c1` [Compound 6, 2-(4-methylpiperazin-1-yl)-N-(m-tolyl)pteridin-4-amine], the IC50 at human MutSbeta [1] is 41.5 µM; at human MutSbeta [2], 82.1 µM; against human MutSbeta [3], 26.2 µM; at human MutSbeta [4], 47.1 µM; in assay [5], greater than 200 µM.

For the molecule `CCN1CCN(c2nc(Nc3ccc(F)c(F)c3)c3nccnc3n2)CC1` [Compound 16, N-(3,4-difluorophenyl)-2-(4-ethylpiperazin-1-yl)pteridin-4-amine], the IC50 on human MutSbeta [1] is greater than 200 µM; on human MutSbeta [2], greater than 200 µM; against human MutSbeta [3], 122 µM; at human MutSbeta [4] it was greater than 200 µM; in assay [5], greater than 200 µM; against human MutSα, 42.7 µM.

On to `Cc1ccc(Nc2nc(N3CCN(C)CC3)nc3nccnc23)cc1Cl` [Compound 20, N-(3-chloro-4-methyl-phenyl)-2-(4-methylpiperazin-1-yl)pteridin-4-amine], for which the IC50 at human MutSbeta [1] is 43.4 µM; at human MutSbeta [2], 109 µM; against human MutSbeta [3] it was 12.9 µM; against human MutSbeta [4], 140 µM; in assay [5], greater than 200 µM; against human MutSα, 26.9 µM.

Source of the values: patent US20240199624A1, “COMPOUNDS, COMPOSITIONS, AND METHODS” (CHDI Foundation, Inc., priority 2022, published 2024).
